Where two headings read alike, the source gives them in different places.

Consider 1 molecule from patent US20260027099A1, “OPHTHALMIC COMPOSITIONS COMPRISING BILASTINE, A BETA-CYCLODEXTRIN AND AT LEAST ONE GELLING AGENT” (FAES FARMA, S.A., priority 2018, published 2026).

Data set [1] is described as follows: Ocular in vivo biodistribution, bilastine tissue concentration by LC-MS/MS. More on the design: species or system Dutch Belted rabbits. Particulars: Dutch Belted, topical, 24 hours post-administration, rabbit, 30 μL of 0.6% w/v formulation in each eye, single occasion. As for the experimental part:
The aqueous ophthalmic formulations of bilastine were prepared at a bilastine concentration of 0.6% w/v. The excipients were as indicated above in Table 1, i.e., also comprised HPB 90 mg/mL, methylcellulose 0.1 mg/mL, sodium hyaluronate 1 mg/mL and glycerin 16.1 mg/mL.
42, 4-5 month-old Dutch Belted rabbits were selected as test subjects. The weight of the animals at treatment start was from 1.6 to 2.1 kg.
Animals received 30 μL of the ophthalmic formulation in each eye on a single occasion. The ophthalmic formulation was placed directly on both eyes of each animal by means of an automatic pipette. A new pipette tip was used for each eye.
The eyes of the test animals were not washed after instillation. Animals were weighed before administration and observed after administration to record any possible clinical sign.
Two to three animals were sacrificed at each time point (0.5, 1, 2, 4, 6, 8, 12 and 24 hours) and the following tissues from both eyes were collected: Aqueous humor, vitreous humor, cornea, conjunctiva, iris/ciliary body, crystalline lens and retina/choroid. Directly after sampling, all solid matrices were weighed (4 decimal precision) to determine the amount of each tissue collected.
Bilastine concentration was determined by LC-MS/MS.
Bilastine analyses were performed according to analytical methods: • PKH/MOA/1022 for rabbit plasma, • PKH/MOA/1042 for rabbit aqueous humor, • PKH/MOA/1043 for rabbit vitreous humor, • PKH/MOA/1028 for rabbit cornea homogenate, • PKH/MOA/1041 for rabbit iris/ciliary body homogenate, • PKH/MOA/1036 for rabbit conjunctiva homogenate, • PKH/MOA/1032 for rabbit crystalline lens homogenate, • PKH/MOA/1029 for rabbit retina/choroid homogenate, which were previously developed and validated at Eurofins|ADME BIOANALYSES according to the Guidance for Industry—Bioanalytical Method Validation—FDA May 2018 and EMA Guideline—EMEA/CHMP/EWP/192217/2009—21 Jul. 2011, in the studies 18-014A to 18-014H.
The analytical methods involved protein precipitation for plasma and involved dilution for other matrices followed by LC-MS/MS analysis using F21201RR (Bilastine-d6) as internal standard.

Data set [2] concerns histamine-induced conjunctival vascular permeability. Particulars: topical drug administered 2 to 8 hours before subconjunctival histamine challenge; Evans blue dye i.v.; cited from earlier work.

In the case of `CCOCCn1c(C2CCN(CCc3ccc(C(C)(C)C(=O)O)cc3)CC2)nc2ccccc21` [bilastine, 2-[4-(2-{4-[1-(2-Ethoxyethyl)-1H-benzimidazol-2-yl]-1-piperidinyl}ethyl)phenyl]-2-methylpropanoic acid], the concentration at 24 h in data set [1] (conjunctiva, read-out: bilastine concentration in conjunctiva (mean value)) amounted to 388 ng/g; in data set [1] (cornea, read-out: bilastine concentration in cornea (mean value)), 28.7 ng/g; in data set [1] (crystalline lens, read-out: bilastine concentration in crystalline lens) it was 0.12 ng/g; in data set [1] (iris/ciliary body, read-out: bilastine concentration in iris/ciliary body), 12.4 ng/g; in data set [1] (retina/choroid, read-out: bilastine concentration in retina/choroid), 1.91 ng/g. Further, in data set [2], the “ED50 (in vivo anti-histaminic activity)” value was 50% efficacy was not achieved.
